US11230540B2, “Substituted triazole derivatives and uses thereof” (Bayer Pharma Aktiengesellschaft, priority 2017, dated 2022)
Where a name gives a salt, the structure may show the parent alone.

How the values were obtained:
[1] = molecular target: T1, human V1a receptor (Homo sapiens, UniProt P37288); test: Cellular in vitro assay for vasopressin receptor activity, V1a receptor cell line (aequorin luminescence); assay type: cell-based; settings: for IC50: CHO cell line transfected with human V1a receptor, [Arg8]-vasopressin at EC50 concentration, read-out: IC50 hV1a; for ratio IC50 hV2/hV1a: selectivity ratio of the IC50 values hV2/hV1a
T1 construct: expressed in transfected cells; host or cells: CHO K1 (Chinese hamster ovary), also stably transfected with a modified aequorin
T1 sequence (P37288 whole entry): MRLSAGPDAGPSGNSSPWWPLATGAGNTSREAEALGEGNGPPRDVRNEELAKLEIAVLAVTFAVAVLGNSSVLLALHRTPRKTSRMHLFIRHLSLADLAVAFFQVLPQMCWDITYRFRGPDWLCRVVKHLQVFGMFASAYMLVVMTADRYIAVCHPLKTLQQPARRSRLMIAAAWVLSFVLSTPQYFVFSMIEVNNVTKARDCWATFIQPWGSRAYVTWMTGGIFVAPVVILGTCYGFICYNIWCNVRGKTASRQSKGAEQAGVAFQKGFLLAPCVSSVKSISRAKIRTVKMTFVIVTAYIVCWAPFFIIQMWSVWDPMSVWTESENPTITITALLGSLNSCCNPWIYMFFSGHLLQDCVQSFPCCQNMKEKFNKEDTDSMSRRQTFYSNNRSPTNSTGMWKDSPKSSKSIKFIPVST
Procedure: (§1) B-1. Cellular In Vitro Assay for Determining Vasopressin Receptor Activity
(§2) The identification of agonists and antagonists of the V1a and V2 vasopressin receptors from humans, rats and dogs as well as the quantification of the activity of the compounds of the invention is carried out using recombinant cell lines. These cell lines originally derive from a hamster's ovary epithelial cell (Chinese Hamster Ovary, CHO K1, ATCC: American Type Culture Collection, Manassas, Va. 20108, USA). The test cell lines constitutively express the human, rat or dog V1a or V2 receptors. In case of the […] V1a receptors, cells are also stably transfected with a modified form of the calcium-sensitive photoproteins aequorin (human and rat V1a) or obelin (dog V1a), which, after reconstitution with the cofactor coelenterazine, emit light when there are increases in free calcium concentrations [Rizzuto R, Simpson A W, Brini M, Pozzan T, Nature 358, 325-327 (1992); Illarionov B A, Bondar V S, Illarionova V A, Vysotski E S, Gene 153 (2), 273-274 (1995)]. The resulting vasopressin receptor cells react to stimulation of the recombinantly expressed V1a receptors by intracellular release of calcium ions, which can be quantified by the resulting photoprotein luminescence. The Gs-coupled V2 receptors are stably transfected into cell lines expressing the gene for firefly luciferase under control of a CRE-responsible promoter. Activation of V2 receptors induces the activation of the CRE-responsive promoter via cAMP increase, thereby inducing the expression of firefly luciferase. The light emitted by photoproteins of V1a cell lines as well as the light emitted by firefly luciferase of V2 cell lines corresponds to the activation or inhibition of the respective vasopressin receptor. The bioluminescence of the cell lines is detected using a suitable luminometer [Milligan G, Marshall F, Rees S, Trends in Pharmacological Sciences 17, 235-237 (1996)].
Vasopressin V1a Receptor Cell Lines:
On the day before the assay, the cells are plated out in culture medium (DMEM/F12, 2% FCS, 2 mM glutamine, 10 mM HEPES, 5 μg/ml coelenterazine) in 384-well microtiter plates and kept in a cell incubator (96% humidity, 5% v/v CO2, 37° C.). On the day of the assay, test compounds in various concentrations are placed for 10 minutes in the wells of the microtiter plate before the agonist [Arg^8]-vasopressin at EC50 concentration is added. The resulting light signal is measured immediately in a luminometer.
(§3) Table 1A below lists individual IC50 values for the compounds of the invention (including racemic mixtures as well as separated enantiomers) that were obtained from cell lines transfected with the human V1a or V2 receptor: […]

[2] = molecular target: T2, human V2 receptor (Homo sapiens, UniProt P30518); test: Cellular in vitro assay for vasopressin receptor activity, V2 receptor cell line (CRE-luciferase); assay type: cell-based; settings: CHO cell line transfected with human V2 receptor; [Arg8]-vasopressin at EC50 concentration; read-out: IC50 hV2
T2 construct: expressed in transfected cells; host or cells: CHO K1 (Chinese hamster ovary) expressing firefly luciferase under a CRE-responsive promoter
T2 sequence (P30518 whole entry): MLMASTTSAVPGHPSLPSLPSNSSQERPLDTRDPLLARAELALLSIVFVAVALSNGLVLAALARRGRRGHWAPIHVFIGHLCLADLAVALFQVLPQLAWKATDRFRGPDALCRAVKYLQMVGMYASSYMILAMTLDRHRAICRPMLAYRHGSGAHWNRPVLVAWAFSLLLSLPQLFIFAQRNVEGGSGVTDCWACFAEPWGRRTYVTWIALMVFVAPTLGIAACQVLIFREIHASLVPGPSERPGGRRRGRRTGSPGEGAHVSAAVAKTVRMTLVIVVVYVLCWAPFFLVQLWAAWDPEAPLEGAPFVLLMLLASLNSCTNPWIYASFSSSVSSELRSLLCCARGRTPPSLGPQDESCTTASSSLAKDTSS
Procedure: as §1, §2
Vasopressin V2 Receptor Cell Lines:
On the day before the assay, the cells are plated out in culture medium (DMEM/F12, 2% FCS, 2 mM glutamine, 10 mM HEPES) in 384-well microtiter plates and kept in a cell incubator (96% humidity, 5% v/v CO2, 37° C.). On the day of the assay, test compounds in various concentrations and the agonist [Arg^8]-vasopressin at EC50 concentration are added together to the wells, and plates are incubated for 3 hours in a cell incubator. Upon addition of the cell lysis reagent Triton™ and the substrate luciferin, luminescence of firefly luciferase is measured in a luminometer.
as §3

| SMILES | IC50 [1] | ratio IC50 hV2/hV1a [1] | IC50 [2] |
| --- | --- | --- | --- |
| O=C(c1nc(Cn2nc(-c3ccc(Cl)cc3)n(C[C@H](O)C(F)(F)F)c2=O)nn1-c1ccccc1Cl)N1CCOCC1 [Example 30, 5-(4-Chlorophenyl)-2-{[1-(2-chlorophenyl)-5-(morpholin-4-ylcarbonyl)-1H-1,2,4-triazol-3-yl]methyl}-4-[(2S)-3,3,3-trifluoro-2-hydroxypropyl]-2,4-dihydro-3H-1,2,4-triazol-3-one] | 1.01 nM | 29.0 | 29.3 nM |
| O=C(NCC1(O)CC1)c1nc(Cn2nc(-c3ccc(Cl)cc3)n(C[C@H](O)C(F)(F)F)c2=O)nn1-c1ccccc1Cl [Example 32, 1-(2-Chlorophenyl)-3-({3-(4-chlorophenyl)-5-oxo-4-[(2S)-3,3,3-trifluoro-2-hydroxypropyl]-4,5-dihydro-1H-1,2,4-triazol-1-yl}methyl)-N-[(1-hydroxycyclopropyl)methyl]-1H-1,2,4-triazole-5-carboxamide] | 1.2 nM | 6.2 | 7.43 nM |
| CN(C)C(=O)c1nc(Cn2nc(-c3ccc(Cl)cc3)n(C[C@H](O)C(F)(F)F)c2=O)nn1-c1cccc(Cl)c1 [Example 35, 1-(3-Chlorophenyl)-3-({3-(4-chlorophenyl)-5-oxo-4-[(2S)-3,3,3-trifluoro-2-hydroxypropyl]-4,5-dihydro-1H-1,2,4-triazol-1-yl}methyl)-N,N-dimethyl-1H-1,2,4-triazole-5-carboxamide] | 4.92 nM | 0.7 | 3.64 nM |
| O=C(c1nc(Cn2nc(-c3ccc(Cl)cc3)n(C[C@H](O)C(F)(F)F)c2=O)nn1-c1cccc(Cl)c1)N1CCOCC1 [Example 36, 5-(4-Chlorophenyl)-2-{[1-(3-chlorophenyl)-5-(morpholin-4-ylcarbonyl)-1H-1,2,4-triazol-3-yl]methyl}-4-[(2S)-3,3,3-trifluoro-2-hydroxypropyl]-2,4-dihydro-3H-1,2,4-triazol-3-one] | 18.3 nM | 0.7 | 12.8 nM |
| O=C(NCC(F)(F)F)c1nc(Cn2nc(-c3ccc(Cl)cc3)n(C[C@H](O)C(F)(F)F)c2=O)nn1-c1cccc(F)c1 [Example 38, 3-({3-(4-Chlorophenyl)-5-oxo-4-[(2S)-3,3,3-trifluoro-2-hydroxypropyl]-4,5-dihydro-1H-1,2,4-triazol-1-yl}methyl)-1-(3-fluorophenyl)-N-(2,2,2-trifluoroethyl)-1H-1,2,4-triazole-5-carboxamide] | 9.66 nM | 1.2 | 11.4 nM |
| CNC(=O)c1nc(Cn2nc(-c3ccc(Cl)cc3)n(C[C@H](O)C(F)(F)F)c2=O)nn1-c1ccccc1OC [Example 42, 3-({3-(4-Chlorophenyl)-5-oxo-4-[(2S)-3,3,3-trifluoro-2-hydroxypropyl]-4,5-dihydro-1H-1,2,4-triazol-1-yl}methyl)-1-(2-methoxyphenyl)-N-methyl-1H-1,2,4-triazole-5-carboxamide] | 1.12 nM | 7.4 | 8.29 nM |
| CNC(=O)c1nc(Cn2nc(-c3ccc(Cl)cc3)n(C[C@H](O)C(F)(F)F)c2=O)nn1-c1ccccc1Cl [Example 43, 1-(2-Chlorophenyl)-3-({3-(4-chlorophenyl)-5-oxo-4-[(2S)-3,3,3-trifluoro-2-hydroxypropyl]-4,5-dihydro-1H-1,2,4-triazol-1-yl}methyl)-N-methyl-1H-1,2,4-triazole-5-carboxamide] | 2.07 nM | 8.1 | 16.7 nM |
| CON(C)C(=O)c1nc(Cn2nc(-c3ccc(Cl)cc3)n(C[C@H](O)C(F)(F)F)c2=O)nn1-c1ccccc1Cl [Example 44, 1-(2-Chlorophenyl)-3-({3-(4-chlorophenyl)-5-oxo-4-[(2S)-3,3,3-trifluoro-2-hydroxypropyl]-4,5-dihydro-1H-1,2,4-triazol-1-yl}methyl)-N-methoxy-N-methyl-1H-1,2,4-triazole-5-carboxamide] | 1.21 nM | 7.2 | 8.63 nM |

The next lines start with the values.

| IC50 [1] | ratio IC50 hV2/hV1a [1] | IC50 [2] | SMILES |
| --- | --- | --- | --- |
| 5.7 nM | 6.0 | 34 nM | O=C1CN(C(=O)c2nc(Cn3nc(-c4ccc(Cl)cc4)n(C[C@H](O)C(F)(F)F)c3=O)nn2-c2ccccc2Cl)CCN1 [Example 31, 4-{[1-(2-Chlorophenyl)-3-({3-(4-chlorophenyl)-5-oxo-4-[(2S)-3,3,3-trifluoro-2-hydroxypropyl]-4,5-dihydro-1H-1,2,4-triazol-1-yl}methyl)-1H-1,2,4-triazol-5-yl]carbonyl}piperazin-2-one] |
| 1.32 nM | 7.4 | 9.77 nM | O=C(NC1CC1)c1nc(Cn2nc(-c3ccc(Cl)cc3)n(C[C@H](O)C(F)(F)F)c2=O)nn1-c1ccccc1Cl [Example 33, 1-(2-Chlorophenyl)-3-({3-(4-chlorophenyl)-5-oxo-4-[(2S)-3,3,3-trifluoro-2-hydroxypropyl]-4,5-dihydro-1H-1,2,4-triazol-1-yl}methyl)-N-cyclopropyl-1H-1,2,4-triazole-5-carboxamide] |
| 34.6 nM | 0.2 | 6.95 nM | CNC(=O)c1nc(Cn2nc(-c3ccc(Cl)cc3)n(C[C@H](O)C(F)(F)F)c2=O)nn1-c1cccc(Cl)c1 [Example 34, 1-(3-Chlorophenyl)-3-({3-(4-chlorophenyl)-5-oxo-4-[(2S)-3,3,3-trifluoro-2-hydroxypropyl]-4,5-dihydro-1H-1,2,4-triazol-1-yl}methyl)-N-methyl-1H-1,2,4-triazole-5-carboxamide] |
| 38.6 nM | 0.6 | 23.4 nM | COCCNC(=O)c1nc(Cn2nc(-c3ccc(Cl)cc3)n(C[C@H](O)C(F)(F)F)c2=O)nn1-c1cccc(F)c1 [Example 37, 3-({3-(4-Chlorophenyl)-5-oxo-4-[(2S)-3,3,3-trifluoro-2-hydroxypropyl]-4,5-dihydro-1H-1,2,4-triazol-1-yl}methyl)-1-(3-fluorophenyl)-N-(2-methoxyethyl)-1H-1,2,4-triazole-5-carboxamide] |
| 47 nM | 0.6 | 28.1 nM | O=C(NC1CC1)c1nc(Cn2nc(-c3ccc(Cl)cc3)n(C[C@H](O)C(F)(F)F)c2=O)nn1-c1cccc(F)c1 [Example 39, 3-({3-(4-Chlorophenyl)-5-oxo-4-[(2S)-3,3,3-trifluoro-2-hydroxypropyl]-4,5-dihydro-1H-1,2,4-triazol-1-yl}methyl)-N-cyclopropyl-1-(3-fluorophenyl)-1H-1,2,4-triazole-5-carboxamide] |
| 131 nM | 0.8 | 98.7 nM | CC(C)(C)OC(=O)N1CCN(C(=O)c2nc(Cn3nc(-c4ccc(Cl)cc4)n(C[C@H](O)C(F)(F)F)c3=O)nn2-c2cccc(F)c2)CC1 [Example 40, tert-Butyl 4-{[3-({3-(4-chlorophenyl)-5-oxo-4-[(2S)-3,3,3-trifluoro-2-hydroxypropyl]-4,5-dihydro-1H-1,2,4-triazol-1-yl}methyl)-1-(3-fluorophenyl)-1H-1,2,4-triazol-5-yl]carbonyl}piperazine-1-carboxylate] |
| 19.3 nM | 7.4 | 141 nM | O=C(c1nc(Cn2nc(-c3ccc(Cl)cc3)n(C[C@H](O)C(F)(F)F)c2=O)nn1-c1cccc(F)c1)N1CCNCC1 [Example 41, 5-(4-Chlorophenyl)-2-{[1-(3-fluorophenyl)-5-(piperazin-1-ylcarbonyl)-1H-1,2,4-triazol-3-yl]methyl}-4-[(2S)-3,3,3-trifluoro-2-hydroxypropyl]-2,4-dihydro-3H-1,2,4-triazol-3-one trifluoroacetate] |
